In ChEMBL document CHEMBL1201862, “PubChem BioAssay data set” (2004):
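Method: 48-hour compound exposure of cells in 96-well plates, five concentrations, linear interpolation of endpoints. At the GI50, growth is halved.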 Active and inactive are the calls of the source. Cut-off read from the data, not from the text of the source: active = GI50 up to about 1.1 µM and inactive = higher.

Assays:
Test in all cases: NCI anticancer screen, dose series, 48 h
[1] = tested on: HCT-15
[2] = tested on: A549
[3] = tested on: A498
[4] = tested on: ACHN
[5] = tested on: HT-29
[6] = tested on: SK-MEL-28
[7] = tested on: SN12C
[8] = tested on: NCI/ADR-RES
[9] = tested on: NCI-H23
[10] = tested on: LOX IMVI
[11] = tested on: HOP-62
[12] = tested on: T47D
[13] = tested on: OVCAR-3
[14] = tested on: MOLT-4
[15] = tested on: MDA-MB-435
[16] = tested on: Hs-578T
[17] = tested on: SF-539
[18] = tested on: SK-MEL-5
[19] = tested on: MDA-N
[20] = tested on: EKVX

Row | SMILES | GI50 [1] | GI50 [2] | GI50 [3] | GI50 [4] | GI50 [5] | GI50 [6] | GI50 [7] | GI50 [8] | GI50 [9] | GI50 [10] | GI50 [11] | GI50 [12] | GI50 [13] | GI50 [14] | GI50 [15] | GI50 [16] | GI50 [17] | GI50 [18] | GI50 [19] | GI50 [20]
1 | O=[N+]([O-])/C(C(Cl)=C(Cl)Cl)=C(/Sc1ccccc1)N1CCCCC1 | > 100 µM | > 93.5 µM (inactive) | > 61.9 µM (inactive) | > 100 µM (inactive) | > 100 µM (inactive) | > 100 µM (inactive) | > 100 µM (inactive) | > 100 µM (inactive) | > 100 µM (inactive) | 8.45 µM (inactive) | > 59.3 µM (inactive) | 11.9 µM (inactive) | > 63.7 µM (inactive) | 3.52 µM (inactive) | > 36.7 µM (inactive) | 67 µM (inactive) | > 100 µM (inactive) | 24.5 µM (inactive) | > 61.5 µM (inactive) | > 91.4 µM (inactive)
2 | CC1=CC[C@@]2(C)[C@@H]([C@@H]1C)[C@H]1CC[C@@H]3[C@@]4(C)CC[C@H](O)C(C)(C)[C@@H]4CC[C@@]3(C)[C@]1(C)C[C@@H]2O | 26.1 µM | 12.6 µM (inactive) | > 20.7 µM (inactive) | 9.62 µM (inactive) | 11.6 µM (inactive) | 6.44 µM (inactive) | 6.61 µM (inactive) | 21.8 µM (inactive) | 25.6 µM (inactive) | 5.53 µM (inactive) | 13.5 µM (inactive) | 23 µM (inactive) | 18.9 µM (inactive) | 13.9 µM (inactive) | 20.2 µM (inactive) | 37 µM (inactive) | 27 µM (inactive) | 13.7 µM (inactive) | 32.4 µM (inactive) | 5.61 µM (inactive)
3 | COc1ccc(C2OC(c3ccncc3)=NN2C)cc1F (stereo not given) | > 100 µM | > 100 µM (inactive) | > 100 µM (inactive) | > 100 µM (inactive) | > 100 µM (inactive) | > 100 µM (inactive) | > 100 µM (inactive) | > 100 µM (inactive) | > 100 µM (inactive) | > 100 µM (inactive) | > 100 µM (inactive) | > 100 µM (inactive) | > 100 µM (inactive) | 41.9 µM (inactive) | > 100 µM (inactive) | > 100 µM (inactive) | > 100 µM (inactive) | > 100 µM (inactive) | > 100 µM (inactive) | > 100 µM (inactive)
4 | COc1cc(NS(C)(=O)=O)ccc1Nc1c2ccccc2nc2c1[nH]c1ccc(NC3OC(CO)C(O)C(O)C3O)cc12 (stereo not given) | 0.152 µM | < 0.0134 µM (active) | 0.129 µM (active) | < 0.0161 µM (active) | 0.159 µM (active) | 0.122 µM (active) | 0.0203 µM (active) | 2.39 µM (inactive) | 0.0215 µM (active) | < 0.0154 µM (active) | < 0.0163 µM (active) | 0.0327 µM (active) | 0.538 µM (active) | < 0.01 µM (active) | 0.798 µM (active) | 0.518 µM (active) | < 0.01 µM (active) | 0.0859 µM (active) | 0.474 µM (active) | 0.782 µM (active)
5 | S=C1Cc2c(-c3ccccc3)cc(-c3ccc(Cl)cc3)nc2-c2ccccc2N1 | 6.84 µM | 3.17 µM (inactive) | 1.62 µM (inactive) | 1.04 µM (active) | 2.65 µM (inactive) | 3.4 µM (inactive) | 1.63 µM (inactive) | 2.38 µM (inactive) | 2.88 µM (inactive) | 3.41 µM (inactive) | 1.39 µM (inactive) | 4.32 µM (inactive) | 3.07 µM (inactive) | 3.79 µM (inactive) | 4.79 µM (inactive) | 1.32 µM (inactive) | 3.08 µM (inactive) | 3.47 µM (inactive) | 4.27 µM (inactive) | 2.52 µM (inactive)
6 | Cc1ccc(C2SCc3nc4ccccc4n32)cc1 (stereo not given) | 1.85 µM | 6.43 µM (inactive) | 3.15 µM (inactive) | 5.32 µM (inactive) | 2.47 µM (inactive) | 6.62 µM (inactive) | 3.01 µM (inactive) | 2.37 µM (inactive) | 2.72 µM (inactive) | 4.47 µM (inactive) | 3.44 µM (inactive) | 10.3 µM (inactive) | 4.72 µM (inactive) | 2.96 µM (inactive) | 0.451 µM (active) | 2.61 µM (inactive) | 2.29 µM (inactive) | 1.53 µM (inactive) | 0.407 µM (active) | 5.35 µM (inactive)
7 | CC1=NN(C(=O)CC(=O)Nc2cccc(Cl)c2)C(=O)C1/N=N/c1ccc(C(=O)O)cc1 (stereo not given) | > 100 µM | > 100 µM (inactive) | > 100 µM (inactive) | > 100 µM (inactive) | > 100 µM (inactive) | > 100 µM (inactive) | > 100 µM (inactive) | > 100 µM (inactive) | > 100 µM (inactive) | 82.4 µM (inactive) | > 100 µM (inactive) | 37.2 µM (inactive) | > 100 µM (inactive) | 78.5 µM (inactive) | > 100 µM (inactive) | > 100 µM (inactive) | > 100 µM (inactive) | > 100 µM (inactive) | > 100 µM (inactive) | > 100 µM (inactive)
8 | Nc1nc(N)nc(CCCCc2nc(N)nc(N)n2)n1 | > 100 µM | > 100 µM (inactive) | > 100 µM (inactive) | > 100 µM (inactive) | > 100 µM (inactive) | > 100 µM (inactive) | > 100 µM (inactive) | > 100 µM (inactive) | > 100 µM (inactive) | > 100 µM (inactive) | > 100 µM (inactive) | > 100 µM (inactive) | > 100 µM (inactive) | > 100 µM (inactive) | > 100 µM (inactive) | > 100 µM (inactive) | > 100 µM (inactive) | > 100 µM (inactive) | > 100 µM (inactive) | > 100 µM (inactive)
9 | CCCCC/C(=N\c1[nH]nnc1C(N)=O)OCC | > 100 µM | > 100 µM (inactive) | > 100 µM (inactive) | > 100 µM (inactive) | > 100 µM (inactive) | > 100 µM (inactive) | > 100 µM (inactive) | > 100 µM (inactive) | > 100 µM (inactive) | > 100 µM (inactive) | > 100 µM (inactive) | > 100 µM (inactive) | > 100 µM (inactive) | > 100 µM (inactive) | > 100 µM (inactive) | > 100 µM (inactive) | > 100 µM (inactive) | > 100 µM (inactive) | > 100 µM (inactive) | > 100 µM (inactive)
10 | CC1=CC(C)C(C)N(CCNS(=O)(=O)c2ccc(C)cc2)c2ccccc21 (stereo not given) | 18.2 µM | 19.4 µM (inactive) | 14.6 µM (inactive) | 15.8 µM (inactive) | 12.5 µM (inactive) | 12.9 µM (inactive) | 12.6 µM (inactive) | 15.2 µM (inactive) | 13.6 µM (inactive) | 10.2 µM (inactive) | 16.3 µM (inactive) | 10.8 µM (inactive) | 12.5 µM (inactive) | 12.2 µM (inactive) | 13.5 µM (inactive) | 12.9 µM (inactive) | 13.4 µM (inactive) | > 10 µM (inactive) | 12.5 µM (inactive) | 16.4 µM (inactive)
11 | COC(=O)c1cc(C)ccc1C1CN=NC12Cc1ccc(C)cc1C2=O (stereo not given) | 40.1 µM | 29.8 µM (inactive) | 29.5 µM (inactive) | 38.6 µM (inactive) | 41.5 µM (inactive) | > 100 µM (inactive) | 44.9 µM (inactive) | 28.5 µM (inactive) | 34 µM (inactive) | 31.2 µM (inactive) | > 100 µM (inactive) | 31.8 µM (inactive) | 36.3 µM (inactive) | 23.1 µM (inactive) | 32.2 µM (inactive) | 45.6 µM (inactive) | 60.4 µM (inactive) | 15.5 µM (inactive) | 31.6 µM (inactive) | 46.5 µM (inactive)
12 | CCCC[C@@H](C)/C=C1\CN2CCC[C@H]2[C@@](C)(OCc2ccccc2)[C@@H]1O | > 50 µM | > 43.7 µM (inactive) | > 47.8 µM (inactive) | > 50 µM (inactive) | > 50 µM (inactive) | > 43 µM (inactive) | > 50 µM (inactive) | > 50 µM (inactive) | > 50 µM (inactive) | > 50 µM (inactive) | 5.98 µM (inactive) | 8.79 µM (inactive) | > 17.5 µM (inactive) | > 41.9 µM (inactive) | > 50 µM (inactive) | > 50 µM (inactive) | > 22.2 µM (inactive) | > 50 µM (inactive) | > 44 µM (inactive) | > 31.1 µM (inactive)
13 | Cn1c([C@H](C#N)C(=O)c2cc(O)ccc2[N+](=O)[O-])nc2ccccc21 | > 100 µM | > 100 µM (inactive) | > 100 µM (inactive) | > 100 µM (inactive) | > 100 µM (inactive) | > 100 µM (inactive) | > 100 µM (inactive) | > 100 µM (inactive) | > 100 µM (inactive) | > 100 µM (inactive) | > 100 µM (inactive) | > 100 µM (inactive) | > 100 µM (inactive) | 4.2 µM (inactive) | 9.51 µM (inactive) | > 100 µM (inactive) | > 100 µM (inactive) | > 100 µM (inactive) | > 100 µM (inactive) | > 100 µM (inactive)
14 | COC(=O)[C@@H]1COC(C(C)(C)C)N1C(=O)C(c1ccccc1)c1ccccc1 (stereo not given in full) | 35.4 µM | 65.8 µM (inactive) | > 100 µM (inactive) | 69.3 µM (inactive) | 55.8 µM (inactive) | > 100 µM (inactive) | 32.1 µM (inactive) | 34 µM (inactive) | 81.7 µM (inactive) | 22.6 µM (inactive) | > 100 µM (inactive) | 62.8 µM (inactive) | 39.2 µM (inactive) | 38.7 µM (inactive) | 36.7 µM (inactive) | 55.5 µM (inactive) | 28.7 µM (inactive) | 36.8 µM (inactive) | 26 µM (inactive) | 55.7 µM (inactive)
